Where two headings read alike, the source gives them in different places.
How the values were obtained:
[1] = tested on: DCIS organoid cell cultures; test: Histomorphology (H&E of FFPE sections) of chloroquine treated DCIS organoids; assay type: cell-based, human; conditions: for histology of intraductal epithelial cells / remaining adherent cells: chloroquine phosphate 50 μM, FIG. 14D
Experimental: (§1) Pharmacological inhibition of autophagy. […] CO-containing medium was replaced three times per week for a period of 6 months.
Immunohistochemistry. Formalin fixed murine tissue or DCIS organoids were processed and paraffin embedded by commercial laboratories (AML Laboratories, Inc, Rosedale, Md. or Bi-Biomics, Nampa, Id.). Formalin fixed paraffin embedded (FFPE) tissue sections (5 μm or 1 μm thickness) mounted on positively charged glass slides were baked at 56° C. for 20 min., deparaffinized in xylene and rehydrated in a series of graded alcohols (100%, 95%, and 70%) with a final rinse in wash buffer (Dako, Carpinteria, Calif., USA). Antigen retrieval, when necessary, was performed with proteinase K or heat induced epitope retrieval. Immunostaining was performed on a Dako Autostainer with an Envision+HRP staining kit (Dako) per manufacturer's instructions. Stained tissue sections were counterstained with Hematoxylin (Dako), rinsed in distilled water and developed in Scott's Tap Water Substitute solution. Cover slips were applied using aqueous mounting medium (Faramount; Dako). Images were captured with an Olympus BX51 microscope using 4×, 10×, 20×, or 100× objectives.

[2] = tested on: DCIS malignant precursor cells; test: Ex vivo invasion of autologous breast stroma in organoid culture; assay type: cell-based, human; conditions: chloroquine phosphate treated organ culture
Experimental: (§2) Organoid ex vivo culture. Dissected breast ductal tissue was grown in 115 cm^2 TPP reclosable flasks (MidSci) or 10 cm^2 culture tubes (MidSci) in serum free DMEM/F12 medium supplemented with human recombinant EGF (10 ng/mL), insulin (10 μg/mL), streptomycin sulfate (100 μg/mL) and gentamicin sulfate (20 μg/mL), with or without 0.36% (v/v) murine Engelbreth-Holm-Swarm (EHS) derived, growth factor reduced, basement membrane extract (Trevigen, Gaithersburg, Md., USA) at 37° C. in a humidified 5.0% CO2 atmosphere. Medium was replaced three times per week. Cultures were maintained continuously for up to one year. Periodically, organoids were removed, under microscopic visualization, for propagation into new culture flasks or phenotypic and molecular analysis.
as §1

[3] = tested on: autophagy associated signal pathway proteins in DCIS spheroids; test: Cell signaling pathway mapping by reverse phase protein microarray (RPMA) of spheroids pre and post chloroquine; assay type: cell-based, human; conditions: for autophagy associated signal pathway proteins (Atg5, AKT, ERK, mTOR, IRS-1, p38 etc.) by RPMA: spheroids pre and post chloroquine phosphate 50 μM for 4 days, n=3
Experimental: as §1
(§3) Statistics. The Student T-test, two tailed with Welch's correction, was used to calculate the p-value, and to determine the statistical difference of epithelial outgrowth area before and after CQ treatment. P values <0.05 were considered significant. Standard deviation (SO) or standard error of the mean (SEM) was calculated for group comparisons. Wilcoxon rank sum was used to determine the differences between CQ treated and untreated groups for the reverse phase protein arrays. A p=0.1 was considered different for small sample sizes.

[4] = tested on: DCIS organoid culture spheroids; test: Autophagosome lysosome imaging with LysoTracker Red; assay type: cell-based, human; conditions: chloroquine phosphate 50 μM for 2 weeks
human DCIS spheroids = conditions: for spheroid and 3-D structure formation (in words): DCIS organoid cultures, untreated up to 113 spheroids per duct organoid
Experimental: Tissue collection. […] Gross tissue pathology at the time of procurement was assessed by a board certified pathologist. Tissue containing DCIS lesions was excised for further macrodissection and rinsed in sterile phosphate buffered saline to remove sentinel lymph node dye. Using sterile technique, ductal tissue was dissected from surrounding breast adipose/fibrous tissue. The ductal tissue was rinsed in serum free DMEM/F 12 medium (Invitrogen, Carlsbad, Calif., USA) supplemented with human recombinant EGF (10 ng/mL; Cell Signaling Technology, Danvers, Mass., USA or Millipore, Billerica, Mass., USA), insulin (10 μg/mL; Roche, Indianapolis, Ind., USA), streptomycin sulfate (100 μg/mL; Sigma, St. Louis, Mo., USA) and gentamicin sulfate (20 μg/mL; Sigma) prior to distribution in culture flasks (MidSci, St. Louis, Mo., USA). Ductal tissue was allowed to attach to the culture surface and observed daily for cellular outgrowths. Non-adherent organoids were removed from the culture flask.
as §2, §1, §3

[5] = listed as chloroquine phosphate

CCN(CC)CCCC(C)Nc1ccnc2cc(Cl)ccc12 (stereo not shown) [chloroquine, N′-(7-chloroquinolin-4-yl)-N,N-diethyl-pentane-1,4-diamine]
histology of invading DCIS cells within the organoid ([1]; 2 days post chloroquine treatment, 50 μM): Degeneration of the invading DCIS cells | histology of intraductal epithelial cells / remaining adherent cells [1]: Cellular swelling and apparent apoptotic death | histology of intraductal epithelial cells / remaining adherent cells ([1]; listed as CQ): lysosomal engorgement | histology of DCIS organoid cultured with chloroquine long term ([1]; cultured in the presence of chloroquine for 6 months, 50 μM): complete absence of cellular outgrowths | ex vivo invasion of autologous stroma [2]: suppressed ex vivo invasion | apoptosis (elevation of cleaved PARP Asp214) ([3]; as early as 48 hours post treatment): induced apoptosis | autophagy associated signal pathway proteins (Atg5, AKT, ERK, mTOR, IRS-1, p38 etc.) by RPMA ([3]; listed as CQ): suppressed | autophagy associated signal pathway proteins (Atg5, AKT, ERK, mTOR, IRS-1, p38 etc.) by RPMA ([3]; listed as Chloroquine): markedly inhibited | autophagy associated signal pathway proteins (Atg5, AKT, ERK, mTOR, IRS-1, p38 etc.) by RPMA [3, 5]: suppressed autophagy associated proteins | spheroid integrity and LysoTracker Red distribution [4]: Dissociation of the spheroid, and diffuse accumulation of LysoTracker Red | spheroid and 3-D structure formation (in words) (human DCIS spheroids): zero for the majority of explants | spheroid and 3-D structure formation (in words) (human DCIS spheroids; listed as CQ): virtually abolished | spheroid and 3-D structure formation (in words) (human DCIS spheroids; [5]): completely suppressed | explants without any spheroids following chloroquine treatment (human DCIS spheroids; case 09-148, 14 explants): 12 out of 14 | spheroids observed after treatment (human DCIS spheroids; case 09-301, n=3, prior to treatment 20.5±7.8): no spheroids observed | inhibition of spheroid outgrowth, CQ in combination with tamoxifen (human DCIS spheroids; cultured DCIS cells, combination with anti-estrogen compound (tamoxifen)): pronounced effect

Reference: patent US20120077843A1, “MALIGNANT PRECURSOR CELLS FROM DUCTAL CARCINOMA IN SITU LESIONS” (George Mason Intellectual Properties, Inc., priority 2009, published 2012)
